The values below come from patent US20110020460A1, “GPR 119 MODULATORS” (Pfizer Inc., priority 2009, published 2011).

“And” between values parts separate entries of the source, which are not always exact repeats. Equal entries are not always repeated. Where two headings read alike, the source gives them in different places. Where only a bound is given, the exact number is not on record here.

Assay [1] concerns the target T1, human GPR119 (Homo sapiens, UniProt Q8TDV5).
T1 construct: host or cells: HEK293-CRE-beta-lactamase
T1 sequence (Q8TDV5 1-335): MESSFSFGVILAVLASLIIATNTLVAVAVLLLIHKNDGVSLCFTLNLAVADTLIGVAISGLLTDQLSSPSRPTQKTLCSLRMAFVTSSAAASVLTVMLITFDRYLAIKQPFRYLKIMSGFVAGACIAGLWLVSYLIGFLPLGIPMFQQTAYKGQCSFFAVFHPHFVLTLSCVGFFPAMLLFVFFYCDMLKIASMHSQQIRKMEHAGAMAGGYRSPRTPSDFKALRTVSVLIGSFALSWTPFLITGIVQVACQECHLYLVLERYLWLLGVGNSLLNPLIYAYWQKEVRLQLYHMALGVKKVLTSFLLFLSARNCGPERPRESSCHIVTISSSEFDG
As to the kind of experiment: GPR119 radioligand binding assay ([3H]-Compound A or [3H]-Compound B, HEK 293FT membranes). The conditions noted are these: Ki from IC50 by Cheng-Prusoff, one value per run. The procedure: Cells were harvested via centrifugation (3,000×g, 10 minutes), washed once on DPBS (minus Ca++/Mg++), resuspended in 0.25M sucrose, 25 mM HEPES, 0.5 mM EDTA, pH 7.4 and frozen at −80 degrees Celsius.
The frozen cells were thawed on ice and centrifuged at 700×g (1400 rpm) for 10 minutes at 4 degrees Celsius. The cell pellet was resuspended in 20 mL phosphate-buffered saline, and centrifuged at 1400 rpm for 10 minutes. […] Cells were then lysed with 15 gentle strokes of a tight-fitting glass Dounce homogenizer. The homogenate was centrifuged at 1000×g (2200 rpm) for 10 minutes at 4 degrees Celsius. The supernatant was transferred into fresh centrifuge tubes on ice. The cell pellet was resuspended in homogenization buffer, and centrifuged again at 1000×g (2200 rpm) for 10 minutes at 4 degrees Celsius after which the supernatant was removed and the pellet resuspended in homogenization buffer. […] The solution was then centrifuged at 25,000×g (15000 rpm) for 20 minutes at 4 degrees Celsius, the supernatant was discarded, and the pellet was resuspended in fresh homogenization buffer (minus Benzonase and MgCl2). After repeating the 25,000×g centrifugation step, the final membrane pellet was resuspended in homogenization buffer and frozen at −80 degrees Celsius.
2 microL of each dilution was added to appropriate wells of a 96-well plate (each concentration in triplicate).
Membranes expressing GPR119 were thawed and diluted to a final concentration of 20 μg/100 microL per well in Binding Buffer, and 100 microL of diluted membranes were added to each well of 96-well plate.
The plate was incubated for 60 minutes w/shaking at room temperature (approximately 25 degrees Celsius). […] Filters were then washed six times using washing buffer (50 mM Tris-HCl, pH 7.5 kept at 4 degrees Celsius). The filter plates were then air-dyed at room temperature overnight.
IC50 determinations were made from competition curves, analyzed with a proprietary curve fitting program (SIGHTS) and a 4-parameter logistic dose response equation. Ki values were calculated from IC50 values, using the Cheng-Prusoff equation.

Assay [2] addresses T1, human GPR119. As to the kind of experiment: cAMP HTRF functional assay (hGPR119 HEK-CRE beta-lactamase cells). The assay is classed as cell-based. The conditions noted are these: for Emax: read-out: Intrinsic Activity* (cAMP). The procedure:
GPR119 agonist activity was also determined with a cell-based assay utilizing an HTRF (Homogeneous Time-Resolved Fluorescence) cAMP detection kit (cAMP dynamic 2 Assay Kit; Cis Bio cat #62AM4PEC) that measures cAMP levels in the cell. The method is a competitive immunoassay between native cAMP produced by the cells and the cAMP labeled with the dye d2. The tracer binding is visualized by a Mab anti-cAMP labeled with Cryptate. The specific signal (i.e. energy transfer) is inversely proportional to the concentration of cAMP in either standard or sample.
Following 30 minutes incubation at room temperature, 5 microL of labeled d2 cAMP and 5 microL of anti-cAMP antibody (both diluted 1:20 in cell lysis buffer; as described in the manufacturers assay protocol) were added to each well of the assay plate. […] Raw data were converted to nM cAMP by interpolation from a cAMP standard curve (as described in the manufacturer's assay protocol) and EC50 determinations were made from an agonist-response curves analyzed with a curve fitting program using a 4-parameter logistic dose response equation.

Assay [3] has as its target T1, human GPR119. As to the kind of experiment: beta-lactamase reporter functional assay (hGPR119 HEK293-CRE beta-lactamase cells). The class given is cell-based. As to conditions: for EC50: read-out: Human B-lactamase Functional EC50; for Emax: read-out: Intrinsic Activity* (B-lactamase). The procedure: The assay for GPR119 agonists utilizes a cell-based (hGPR119 HEK293-CRE beta-lactamase) reporter construct where agonist activation of human GPR119 is coupled to beta-lactamase production via a cyclic AMP response element (CRE). GPR119 activity is then measured utilizing a FRET-enabled beta-lactamase substrate, CCF4-AM (Live Blazer FRET-B/G Loading kit, Invitrogen cat #K1027). […] After 4 hours the plating medium was removed and replaced with 40 microL of assay medium (Assay medium is plating medium without potassium clavulanate and HIFBS). Varying concentrations of each compound to be tested was then added in a volume of 10 microL (final DMSO≦0.5%) and the cells were incubated for 16 hours at 37 degrees Celsius in a humidified environment containing 5% carbon dioxide. Plates were removed from the incubator and allowed to equilibrate to room temperature for approximately 15 minutes. 10 microL of 6×CCF4/AM working dye solution (prepared according to instructions in the Live Blazer FRET-B/G Loading kit, Invitrogen cat #K1027) was added per well and incubated at room temperature for 2 hours in the dark. Fluorescence was measured on an EnVision fluorimetric plate reader, excitation 405 nm, emission 460 nm/535 nm. EC50 determinations were made from agonist-response curves analyzed with a curve fitting program using a 4-parameter logistic dose-response equation.

[4] abbreviates: hGPR119 HEK-CRE beta-lactamase cells, HTRF cAMP, one value per run.
Where [5] appears, read: percent of maximal activity relative to standard GPR119 agonist (WO2005121121) at 10 μM, one value per run.
The mark [6] stands for this setting: hGPR119 HEK293-CRE beta-lactamase cells, one value per run.
The mark [7] stands for this setting: percent of maximal activity relative to standard GPR119 agonist (WO2005121121) at 10 microM, one value per run.
Setting [8] is: **curve was extrapolated to 100% to calculate an EC50.

Regarding `CC(C)OC(=O)N1CCC(n2ncc(C(C)Oc3ccc(S(C)(=O)=O)cc3F)c2C#N)CC1` (stereo not shown) [Example 27, Isopropyl 4-(5-cyano-4-{1-[2-fluoro-4-(methylsulfonyl)phenoxy]ethyl}-1H-pyrazol-1-yl)piperidine-1-carboxylate], the Ki on human GPR119 [1] (read-out: Human Binding Ki) was 1640 nM and 528 nM. The EC50 is 394 nM at human GPR119 [2] (setting [4]); 1870 nM and 3400 nM at human GPR119 [3] (setting [6]). The values for the Emax on human GPR119 [2] (setting [5]) and on human GPR119 [3] (setting [7]) were 27% and 102%, respectively. Further, the “Intrinsic Activity* (B-lactamase)” value on human GPR119 [3] (setting [7]) is reported as 100%.
For the compound `CC(C)OC(=O)N1CCC(n2ncc(COc3ccc(-c4nnnn4CCO)cc3F)c2C#N)CC1` [Example 23, Isopropyl 4-(5-cyano-4-((2-fluoro-4-(1-(2-hydroxyethyl)-1H-tetrazol-5-yl)phenoxy)methyl)-1H-pyrazol-1-yl)piperidine-1-carboxylate], at human GPR119 [1] (read-out: Human Binding Ki), the Ki worked out at 150 nM. For the same compound, on human GPR119 [2] (setting [8]), the EC50 is 1640 nM and 1470 nM; the Emax is 100%.
For `COP(=O)(OC)c1ccc(OCc2cnn(C3CCN(C(=O)OC(C)C)CC3)c2C#N)c(F)c1` [Example 7, Isopropyl 4-(5-cyano-4-{[4-(dimethoxyphosphoryl)-2-fluorophenoxy]methyl}-1H-pyrazol-1-yl)piperidine-1-carboxylate], the Ki on human GPR119 [1] (Human Binding Ki) is 293 nM and 283 nM. Besides, the EC50 at human GPR119 [2] (setting [4]) is 225 nM and 256 nM and 169 nM; at human GPR119 [3] (setting [6]), 622 nM. Further, the “Intrinsic Activity* (cAMP)” value at human GPR119 [2] (setting [5]) is 74% and 85%. Also, the Emax was 80% at human GPR119 [2] (setting [5]) and 98% at human GPR119 [3] (setting [7]).
On to `Cc1ccccc1OCc1cnn(C2CCN(C(=O)OC(C)C)CC2)c1C#N` [Example 12, Isopropyl 4-{5-cyano-4-[(2-methylphenoxy)methyl]-1H-pyrazol-1-yl}piperidine-1-carboxylate], for which the Ki on human GPR119 [1] (read-out: Human Binding Ki) stood at 1700 nM. Moreover, the EC50 at human GPR119 [2] (setting [4]) is over 10000 nM; at human GPR119 [3] (setting [8]), 5200 nM. Further, the Emax on human GPR119 [2] (setting [5]) was 31%; at human GPR119 [3] (setting [8]), 100%.
In the case of `Cc1ncccc1OC(C)c1cnn(C2CCN(C(=O)OC(C)C)CC2)c1C#N` (stereo not shown) [Example 28, Isopropyl 4-(5-cyano-4-{1-[(2-methylpyridin-3-yl)oxy]ethyl}-1H-pyrazol-1-yl)piperidine-1-carboxylate], on human GPR119 [1] (read-out: Human Binding Ki), the Ki is over 6100 nM. Further, the EC50 was over 10000 nM on human GPR119 [2] (setting [4]); 5 nM and 3 nM at human GPR119 [3] (setting [6]). Besides, at human GPR119 [3] (percent of maximal activity relative to standard GPR119 agonist (WO2005121121) at 10 microM, one value per run, listed as Exmaple 28), the “Intrinsic Activity* (B-lactamase)” value was determined as 22%. The Emax on human GPR119 [3] (setting [7]) was found to be 27%.
Regarding `CC(C)OC(=O)N1CCC(n2ncc(CC(C)c3ccc(S(C)(=O)=O)cc3F)c2C#N)CC1` (stereo not shown) [Example 29, Isopropyl 4-(5-cyano-4-{2-[2-fluoro-4-(methylsulfonyl)phenyl]propyl}-1H-pyrazol-1-yl)piperidine-1-carboxylate], the Ki at human GPR119 [1] (read-out: Human Binding Ki) was 1550 nM and 3380 nM. Moreover, on human GPR119 [2] (setting [5]), the “Intrinsic Activity* (cAMP)” value is reported as 33% and the Emax is 27%. Also, at human GPR119 [3] (setting [8]), the EC50 is 3010 nM and the Emax was 100%.
Regarding `Cn1nnnc1-c1ccc(OCc2cnn(C3CCN(C(=O)OC4(C)CC4)CC3)c2C#N)cc1` [Example 25, 1-Methylcyclopropyl 4-(5-cyano-4-{[4-(1-methyl-1H-tetrazol-5-yl)phenoxy]methyl}-1H-pyrazol-1-yl)piperidine-1-carboxylate], the Ki on human GPR119 [1] (read-out: Human Binding Ki) came to 418 nM. Further, the EC50 on human GPR119 [2] (setting [4]) was 57 nM and 111 nM. Besides, at human GPR119 [2] (setting [5]), the “Intrinsic Activity* (cAMP)” value is 88% and 114%.
Take `CC(C)OC(=O)N1CCC(n2ncc(COc3ccc(-c4nnn(CCO)n4)cc3F)c2C#N)CC1` [Example 22, Isopropyl 4-(5-cyano-4-((2-fluoro-4-(2-(2-hydroxyethyl)-2H-tetrazol-5-yl)phenoxy)methyl)-1H-pyrazol-1-yl)piperidine-1-carboxylate]: the Ki on human GPR119 [1] (read-out: Human Binding Ki) is 159 nM. Further, the EC50 on human GPR119 [2] (setting [4]) is 147 nM and 161 nM. Further, the Emax on human GPR119 [2] (setting [5]) is 29%.
Take `Cc1nc(S(C)(=O)=O)ccc1NCc1cnn(C2CCN(C(=O)OC(C)C)CC2)c1C#N` [Example 37, Isopropyl 4-[5-cyano-4-({[2-methyl-6-(methylsulfonyl)pyridin-3-yl]amino}methyl)-1H-pyrazol-1-yl]piperidine-1-carboxylate]: at human GPR119 [1] (read-out: Human Binding Ki), the Ki was found to be 416 nM. Also, the EC50 at human GPR119 [2] (setting [4]) was 1160 nM; at human GPR119 [3] (setting [6]), 328 nM and 805 nM. The results for the Emax on human GPR119 [2] (setting [5]) and on human GPR119 [3] (setting [7]) were 56% and 114%, respectively. Besides, the “Intrinsic Activity* (B-lactamase)” value at human GPR119 [3] (setting [7]) is 105%.
Regarding `CC(C)OC(=O)N1CCC(n2ncc(COc3ccc(-n4cccn4)cc3)c2C#N)CC1` [Example 18, Isopropyl 4-(4-((4-(1H-pyrazol-1-yl)phenoxy)methyl)-5-cyano-1H-pyrazol-1-yl)piperidine-1-carboxylate], on human GPR119 [1] (read-out: Human Binding Ki), the Ki is 153 nM. The EC50 at human GPR119 [2] (setting [4]) is 67 nM and 69 nM. Further, at human GPR119 [2] (setting [5]), the “Intrinsic Activity* (cAMP)” value is given as 75% and the Emax turned out to be 80%.
For the compound `CC1(OC(=O)N2CCC(n3ncc(COc4ccc(C(N)=O)c(F)c4)c3C#N)CC2)CC1` [Example 26, 1-Methylcyclopropyl 4-(4-((4-carbamoyl-3-fluorophenoxy)methyl)-5-cyano-1H-pyrazol-1-yl)piperidine-1-carboxylate], a half-maximal response on human GPR119 [2] (setting [4]) (EC50) required 254 nM. In addition, the Emax at human GPR119 [2] (setting [5]) is 62%.
Regarding `CC(C)OC(=O)N1CCC(n2ncc(CCc3ccc(S(C)(=O)=O)cc3F)c2C#N)CC1` [Example 9, Isopropyl 4-(5-cyano-4-{2-[2-fluoro-4-(methylsulfonyl)phenyl]ethyl}-1H-pyrazol-1-yl)piperidine-1-carboxylate], the Ki on human GPR119 [1] (read-out: Human Binding Ki) was 35 nM and 42 nM. Moreover, at human GPR119 [3] (setting [6]), the EC50 was 56 nM and 89 nM. In addition, at human GPR119 [3] (setting [7]), the “Intrinsic Activity* (B-lactamase)” value was 93% and the Emax was 98%.

A word on the Ki: it is the equilibrium dissociation constant of an inhibitor or competing ligand from its target. One may read the EC50 as the midpoint of the concentration-response curve.
